# In patent publication US6730665B1, “Treatment of bone cancer” (Mayo Foundation for Medical Education and Research, priority 1999, dated 2004):
# Experiments:
# MG63 cells [1] = assay: Bone matrix protein mRNA levels by northern blot; assay type: cell-based, human; conditions: 10 μM
# Description: Time course effects of 2ME on steady-state mRNA levels for bone matrix proteins were determined. MG63 cells in triplicate cultures were treated with 10 μM 2ME. Cells were harvested at the end of 0, 12, 24 and 72 h of treatment and used for RNA isolation. Total RNA isolated from cells was analyzed by northern blot hybridization. Ten μg of RNA sample were denatured by incubation at 52° C. in a solution of 1M glyoxal, 50% dimethyl sulfoxide, and 0.01 M NaH2PO4, and then separated in a 1% agarose gel. RNA separated in agarose gels was transferred to an Amersham Hybond nylon membrane overnight via capillary action in 20× standard saline citrate (SSC) (1×SSC=0.15 M NaCl and 0.015 M sodium citrate, pH 7.0), sodium citrate buffer. The amounts of RNA loaded and transferred were assessed by methylene blue staining of the membranes and hybridization with a [^32P]-labeled cDNA for 18S ribosomal RNA. Membranes were prehybridized for 2 h at 65° C. in buffer containing 50% deionized formamide, 10% dextran sulfate, 5×SSC, 100 μg/ml of heat-denatured single-strand salmon sperm DNA, and 2× Denhardts solution. Hybridization was conducted for 80 min in a buffer containing the above ingredients in addition to a minimum of 10^6 cpm per mL [^32P]-labeled cDNA probe. Labeled type I collagen and osteonectin cDNA were used for probing the blots. The cDNA probes were labeled by random sequence hexanucleotide primer extension using the Megaprime DNA labeling kit from Amersham (Arlington Heights, Ill.). The membranes were washed for 30 min at 45° C. in 2×SSC and for 15 to 60 min in 0.1×SSC at 45° C. The resulting radioactive mRNA bands on the blots were quantitated by Phosphorimager (Molecular Dynamics, Sunnyvale, Calif.).
# MG63 osteosarcoma cells = assay: In situ apoptosis by TUNEL assay; assay type: cell-based, human; conditions: 10 μM, 48 h
# Description: The effect of 2ME on in situ apoptosis was examined at the single cell level, based on labeling of DNA strand breaks using the TUNEL (terminal deoxynucleotidyl transferase-mediated dUTP nick end labeling) assay per manufacturer's protocol (Boehringer Mannheim, Indianapolis, Ind.). In this method, the ends of broken DNA strands were labeled with fluorescein-dUTP, and apoptotic cells in adherent cultures were detected by fluorescence microscopy. In brief, TUNEL assay was performed on coverslips of adherent cells contained in individual wells of a 24-well culture dish. Cells were washed once with phosphate buffered saline (PBS) and allowed to air dry before being fixed in 4% phosphate-buffered paraformaldehyde pH 7.4 (Sigma, St. Louis, Mo.) for 1 h at room temperature. Following a PBS rinse, endogenous peroxidase was blocked by incubating cells for 1 h at room temperature with 0.3% hydrogen peroxide in methanol (Sigmna). The latter was performed for the option of converting fluorescein-labeled cells to peroxidase-labeled cells and DAB chromogenic detection. Subsequent to a PBS rinse, cells were permeabilized on ice with incubation in 0.1% Triton X-100 in 0.1% sodium citrate for 2 min. Coverslips were rinsed twice in PBS before the addition of TUNEL reaction mixture (100 μl). […] Coverslips were rinsed 3 times with PBS before visualization by fluorescence microscopy. […]
# MG63 cells [2] = assay: Cytokine and growth factor mRNA levels by RNase protection assay; assay type: cell-based, human; conditions: 10 μM
# Description: Changes in steady state mRNA levels for cytokines implicated in the regulation of bone formation and resorption were measured using RNase Protection assays. For RNA isolation and RNase protection assays, MG63 cells were plated at 10^6 cells per T75 culture flask a day prior to metabolite treatment. The next day, the medium was removed and replaced with fresh medium containing 10 μM concentrations of 2ME and incubated for 12, 24, 48, and 72 hours. Cells were harvested and cell pellets were used for RNA isolation. Total cellular RNA was extracted and isolated using a modified organic solvent method and the RNA yields were determined spectrohotometrically at 260 nm. Total cellular RNA was analyzed by RNase protection assays using antisense RNA probes for transforming growth factor-beta (TGF-β), tumor necrosis factor (TNF) α and β, interleukin (IL) 1α, 1β, 1Ra, 6, 10, 12 (p35 and p40), interferon (IFN) β and γ, and lymphotoxin (LT) β. Quantitation of protected RNA fragments was performed by PhosphorImager analyses and normalized to ribosomal structural protein L32 or glyceraldehyde 3-phosphate dehydrogenase levels. Results are presented in FIG. 8 and Table 4, and are representative of 3 independent treatments.
# estrogen receptors = conditions: cited from earlier work
compound,measurement,setting,value
"COc1cc2c(cc1O)CC[C@@H]1[C@@H]2CC[C@]2(C)[C@@H](O)CC[C@@H]12 [2ME, 2-methoxyestradiol]",decrease in osteonectin mRNA level,MG63 cells [1]; 12 h,50%
same,decrease in type 1 collagen mRNA level,MG63 cells [1]; 12 h,26%
same,decrease in osteonectin mRNA level,MG63 cells [1]; 24 h,38%
same,decrease in type 1 collagen mRNA level,MG63 cells [1]; 24 h,37%
same,mRNA levels for the bone matrix proteins (in words),MG63 cells [1]; 72 h,returned to normal levels
same,TUNEL staining,MG63 osteosarcoma cells,Positive staining
same,increase of TGF-β1 mRNA level,MG63 cells [2],177%
same,increase of TGF-β2 mRNA level,MG63 cells [2],289%
same,increase of TGF-β3 mRNA level,MG63 cells [2],178%
same,IFN-β mRNA,MG63 cells [2]; 12-72 hours,Increased
same,IFN-γ mRNA,MG63 cells [2]; 12-72 hours,Not detected
same,IL-1 Ra mRNA,MG63 cells [2]; 12-72 hours,Not detected
same,IL-1α mRNA,MG63 cells [2]; 12-72 hours,Not detected
same,IL-1β mRNA,MG63 cells [2]; 12-72 hours,Not detected
same,IL-6 mRNA,MG63 cells [2]; 12-72 hours,Not detected
same,IL-10 mRNA,MG63 cells [2]; 12-72 hours,Not detected
same,IL-12 p35 mRNA,MG63 cells [2]; 12-72 hours,Not detected
same,IL-12 p40 mRNA,MG63 cells [2]; 12-72 hours,Not detected
same,LT-β mRNA,MG63 cells [2]; 12-72 hours,Not detected
same,TGF-β1 mRNA,MG63 cells [2]; 12-72 hours,Increased
same,TGF-β2 mRNA,MG63 cells [2]; 12-72 hours,Increased
same,TGF-β3 mRNA,MG63 cells [2]; 12-72 hours,Increased
same,TNF-α mRNA,MG63 cells [2]; 12-72 hours,Not detected
same,TNF-β mRNA,MG63 cells [2]; 12-72 hours,Not detected
same,maximum increase of interferon-β mRNA level,MG63 cells [2]; by 48 h,2100%
same,increase of interferon-β mRNA level,MG63 cells [2]; within 12 h,500%
same,affinity for estrogen receptors (in words),estrogen receptors,negligible affinity
